# From patent publication US11963960B2 (Flash Therapeutics, LLC, priority 2020, dated 2024)
# Like-named read-outs stand apart in the source and are kept apart here.
# Columns and labels:
# [1] = target: N-terminally GST-tagged HCK (75-526) (Homo sapiens (Human), UniProt P08631); experiment: HCK Kinase Assay (ProFluor Src-Family Kinase Assay); type: biochemical
# In short: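 ProFluor Src-family format: after the kinase reaction, protease solution was added for 60 min at room temperature (22-25° C), then stabilizer.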
# [2] = Assessment of In Vitro Metabolic Stability in dog liver microsomes; type: in vitro ADME; conditions: for half-life at 1 μM: dog liver microsomes 0.5 mg/mL, 1 μM compound, NADPH, 37° C., read-out: Dog LM t1/2; for t1/2 in dog LM compared with the compound of example 1: comparison in words
# Procedure: Assessment of In Vitro Metabolic Stability
# Dog liver microsomes (0.5 mg/mL) were purchased from Corning. Stock solutions were prepared at 10 mM in DMSO for the test compound. Aliquots of the stock solutions were diluted to 0.5 mM with acetonitrile, and then further diluted upon the addition of liver microsomes/buffer to 1.5 μM. An aliquot of 30 μL of 1.5 μM solutions was mixed with 15 μL of 6 mM NADPH and the final concentration of NADPH was 2 mM, which had been pre-warmed to 37° C. Test compound and Ketanserin final concentrations were 1 μM. The plates were kept in a 37° C. water bath for the duration of the experiment. At each time point (0, 5, 15, 30, 45 minutes), 135 μL of acetonitrile was added into corresponding wells. After the final time point was quenched by acetonitrile, the assay plates were shaken (IKA, MTS 2/4) for 10 min (600 rpm/min) and then centrifuged at 5,594 g for 15 min (Thermo Multifuge×3R). Aliquots of the supernatant were taken, diluted 1:1 into distilled water, and analyzed by LC-MS/MS. The peak area response ratio to internal standard (PARR) of the compounds at 5, 15, 30, 45 minutes was compared to the PARR at time 0 to determine the percent of test compound remaining at each time point. Half-lives were calculated using Excel software, fitting to a single-phase exponential decay equation.
# [3] = Assessment of In Vivo Pharmacokinetics in Beagle dog; conditions: male Beagle dog, iv or po at 1 mg/kg or 3 mg/kg
# Procedure: Assessment of In Vivo Pharmacokinetics
# A total of 6 Male Non-naïve Beagle dog, weighing approximately 8.00-10.00 kg (Beijing Marshall Biotechnology Co. LTD), were dosed by intravenous injection (iv) or oral gavage (po) at 1 mg/kg or 3 mg/kg. The vehicles of IV and PO are 100% saline and 100% (0.5% MC in water), respectively. The IV dose was conducted via cephalic vein injection, PO via gavage administration. The animals were restrained manually, and approximately 0.5 mL blood/time point was collected from cephalic vein into pre-cooled K2EDTA tubes. Blood sample was put on wet ice and centrifuged at 4° C. (2000 g, 5 min) to obtain plasma within 15 minutes of sample collection. Plasma samples were analyzed by UPLC/MS-MS. PK parameters were estimated by non-compartmental model using WinNonlin6.4.
# [4] = HCK inhibitory activity, 50 μM ATP, read-out: HCK Activity
# N-terminally GST-tagged HCK (75-526), sequence (P08631 75-526): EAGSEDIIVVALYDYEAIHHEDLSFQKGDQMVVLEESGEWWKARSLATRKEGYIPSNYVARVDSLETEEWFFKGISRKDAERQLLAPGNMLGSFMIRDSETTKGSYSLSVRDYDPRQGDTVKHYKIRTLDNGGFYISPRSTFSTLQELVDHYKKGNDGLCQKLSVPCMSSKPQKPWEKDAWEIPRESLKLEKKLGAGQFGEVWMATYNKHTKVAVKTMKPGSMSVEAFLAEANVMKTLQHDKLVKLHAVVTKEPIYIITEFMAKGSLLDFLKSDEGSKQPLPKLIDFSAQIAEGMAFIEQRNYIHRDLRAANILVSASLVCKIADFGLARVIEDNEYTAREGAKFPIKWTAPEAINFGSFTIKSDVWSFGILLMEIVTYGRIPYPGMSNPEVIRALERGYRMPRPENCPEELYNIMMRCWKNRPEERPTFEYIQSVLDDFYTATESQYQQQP
SMILES,"IC50 [1, 4] [nM]",other results
"CN1CCN([C@H]2CC[C@H](n3cc(-c4ccc(Oc5ccccc5)cc4)c4c(N)ncnc43)CC2)CC1 [Example 1, 7-((trans)-4-(4-methylpiperazin-1-yl)cyclohexyl)-5-(4-phenoxyphenyl)-7H-pyrrolo[2,3-d]pyrimidin-4-amine]",,"IC50 [1]: < 50 nM; IC50 ([1]; 50 μM ATP, read-out: HCK IC50): 3.3 nM; half-life at 1 μM [2]: 0.183 h; Dog BAV [3]: 0 % F"
"C[C@H]1CN([C@H]2CC[C@H](n3cc(-c4ccc(Oc5ccccc5)cc4)c4c(N)ncnc43)CC2)CCN1 [Example 19, 7-((trans)-4-((S)-3-methylpiperazin-1-yl)cyclohexyl)-5-(4-phenoxyphenyl)-7H-pyrrolo[2,3-d]pyrimidin-4-amine]",< 50,"IC50 ([1]; 50 μM ATP, read-out: HCK IC50): 17 nM; t1/2 in dog LM compared with the compound of example 1 [2]: higher t1/2; half-life at 1 μM [2]: 1.4 h"
"C[C@H]1CN([C@H]2CC[C@H](n3nc(-c4ccc(Oc5ccccc5)cc4)c4c(N)ncnc43)CC2)CCN1 [Example 21, 1-((trans)-4-((S)-3-methylpiperazin-1-yl)cyclohexyl)-3-(4-phenoxyphenyl)-1H-pyrazolo[3,4-d] pyrimidin-4-amine]",< 50,"IC50 ([1]; 50 μM ATP, read-out: HCK IC50): 43 nM; t1/2 in dog LM compared with the compound of example 1 [2]: higher t1/2; half-life at 1 μM [2]: 2.13 h"
"C[C@H]1CC(N2CCC(n3cc(-c4ccc(Oc5ccccc5)cc4)c4c(N)ncnc43)CC2)CCN1 (stereo partly drawn) [Example 154, 7-((2′S)-2′-methyl-[1,4′-bipiperidin]-4-yl)-5-(4-phenoxyphenyl)-7H-pyrrolo[2,3-d]pyrimidin-4-amine]",< 50,
"C[C@H]1CC(N2CCC(n3nc(-c4ccc(Oc5ccccc5)cc4F)c4c(N)ncnc43)CC2)CCN1 (stereo partly drawn) [Example 155, 3-(2-fluoro-4-phenoxyphenyl)-1-((2′S)-2′-methyl-[1,4′-bipiperidin]-4-yl)-1H-pyrazolo[3,4-d]pyrimidin-4-amine]",< 50,
"C[C@H]1CC(N2CCC(n3cc(-c4ccc(NC(=O)Nc5cc(C(C)(C)C)on5)cc4)c4c(N)ncnc43)CC2)CCN1 (stereo partly drawn) [Example 156, 1-(4-(4-amino-7-((2′S)-2′-methyl-[1,4′-bipiperidin]-4-yl)-7H-pyrrolo[2,3-d]pyrimidin-5-yl)phenyl)-3-(5-(tert-butyl)isoxazol-3-yl)urea]",< 50,
"Nc1ncnc2c1c(-c1ccc(Oc3ccccc3)cc1)cn2C1CCN(C2CCNC(CO)C2)CC1 (centres unmarked) [Example 157, (4-(4-amino-5-(4-phenoxyphenyl)-7H-pyrrolo[2,3-d]pyrimidin-7-yl)-[1,4′-bipiperidin]-2′-yl)methanol]",< 50,
"COC(=O)C1CC(N2CCC(n3cc(-c4ccc(Oc5ccccc5)cc4)c4c(N)ncnc43)CC2)CCN1 (centres unmarked) [Example 158, methyl 4-(4-amino-5-(4-phenoxyphenyl)-7H-pyrrolo[2,3-d]pyrimidin-7-yl)-[1,4′-bipiperidine]-2′-carboxylate]",50 to 250,
"Nc1ncnc2c1c(-c1ccc(Oc3ccccc3)cc1)cn2C1CCN(C2CCCC(N)C2)CC1 (centres unmarked) [Example 159, 7-(1-(3-aminocyclohexyl)piperidin-4-yl)-5-(4-phenoxyphenyl)-7H-pyrrolo[2,3-d]pyrimidin-4-amine]",< 50,
"CN1CCCC(N2CCC(n3cc(-c4ccc(Oc5ccccc5)cc4)c4c(N)ncnc43)CC2)C1 (centres unmarked) [Example 160, 7-(1′-methyl-[1,3′-bipiperidin]-4-yl)-5-(4-phenoxyphenyl)-7H-pyrrolo [2,3-d] pyrimidin-4-amine]",50 to 250,
"Nc1ncnc2c1c(-c1ccc(Oc3ccccc3)cc1)cn2C1CCN(C(CO)CO)CC1 [Example 161, 2-(4-(4-amino-5-(4-phenoxyphenyl)-7H-pyrrolo[2,3-d]pyrimidin-7-yl)piperidin-1-yl)propane-1,3-diol]",< 50,
"NCC1OCC(N2CCC(n3cc(-c4ccc(Oc5ccccc5)cc4)c4c(N)ncnc43)CC2)CO1 (centres unmarked) [Example 162, 7-(1-(2-(aminomethyl)-1,3-dioxan-5-yl)piperidin-4-yl)-5-(4-phenoxyphenyl)-7H-pyrrolo[2,3-d]pyrimidin-4-amine]",< 50,
"CN1CCN([C@H]2CC[C@@H](c3nc(-c4ccc(Oc5ccccc5)cc4F)c4c(N)ncnn43)CC2)CC1 [Example 164, 5-(2-Fluoro-4-phenoxyphenyl)-7-((cis)-4-(4-methylpiperazin-1-yl)cyclohexyl)imidazo[5,1-f][1,2,4]triazin-4-amine]",50 to 250,
"C[C@H]1CN([C@H]2CC[C@H](c3nc(-c4ccc(Oc5ccccc5)cc4F)c4c(N)ncnn43)CC2)CCN1 [Example 165, 5-(2-fluoro-4-phenoxyphenyl)-7-((trans)-4-((S)-3-methylpiperazin-1-yl)cyclohexyl)imidazo[5,1-f][1,2,4]triazin-4-amine]",< 50,"IC50 ([1]; 50 μM ATP, read-out: HCK IC50): 5 nM; t1/2 in dog LM compared with the compound of example 1 [2]: higher t1/2; half-life at 1 μM [2]: 2.78 h"
"C[C@H]1CN([C@H]2CC[C@@H](c3nc(-c4ccc(Oc5ccccc5)cc4F)c4c(N)ncnn43)CC2)CCN1 [Example 166, 5-(2-fluoro-4-phenoxyphenyl)-7-((cis)-4-((S)-3-methylpiperazin-1-yl)cyclohexyl)imidazo[5,1-f][1,2,4]triazin-4-amine]",250 to 10000,
"CN1CCN([C@H]2CC[C@@H](c3cc(-c4ccc(Oc5ccccc5)cc4)c4c(N)ncnn43)CC2)CC1 [Example 167, 7-((cis)-4-(4-Methylpiperazin-1-yl)cyclohexyl)-5-(4-phenoxyphenyl)pyrrolo[2,1-f][1,2,4]triazin-4-amine]",250 to 10000,
"CN1CCN([C@H]2CC[C@H](c3cc(-c4ccc(Oc5ccccc5)cc4)c4c(N)ncnn43)CC2)CC1 [Example 168, 7-((trans)-4-(4-Methylpiperazin-1-yl)cyclohexyl)-5-(4-phenoxyphenyl)pyrrolo[2,1-f][1,2,4]triazin-4-amine]",< 50,
"C[C@H]1CN([C@H]2CC[C@H](c3cc(-c4ccc(Oc5ccccc5)cc4)c4c(N)ncnn43)CC2)CCN1 [Example 169, 7-((trans)-4-((S)-3-Methylpiperazin-1-yl)cyclohexyl)-5-(4-phenoxyphenyl)pyrrolo[2,1-f][1,2,4]triazin-4-amine]",< 50,
"C[C@H]1CN([C@H]2CC[C@@H](c3cc(-c4ccc(Oc5ccccc5)cc4)c4c(N)ncnn43)CC2)CCN1 [Example 170, 7-((cis)-4-((S)-3-Methylpiperazin-1-yl)cyclohexyl)-5-(4-phenoxyphenyl)pyrrolo[2,1-f][1,2,4]triazin-4-amine]",50 to 250,
CN1CCN([C@H]2CC[C@H](c3cc(-c4ccc(NC(=O)Nc5cc(C(C)(C)C)on5)cc4)c4c(N)ncnn43)CC2)CC1 [Example 171],< 50,
CN1CCN([C@H]2CC[C@@H](c3cc(-c4ccc(NC(=O)Nc5cc(C(C)(C)C)on5)cc4)c4c(N)ncnn43)CC2)CC1 [Example 172],< 50,
"CN1CCN([C@H]2CC[C@H](c3nc(-c4ccc(Oc5ccccc5)cc4)c4c(N)nccn43)CC2)CC1 [Example 173, 3-((trans)-4-(4-Methylpiperazin-1-yl)cyclohexyl)-1-(4-phenoxyphenyl)imidazo[1,5-a]pyrazin-8-amine]",< 50,
"CN1CCN([C@H]2CC[C@@H](c3nc(-c4ccc(Oc5ccccc5)cc4)c4c(N)nccn43)CC2)CC1 [Example 174, 3-((cis)-4-(4-Methylpiperazin-1-yl)cyclohexyl)-1-(4-phenoxyphenyl)imidazo[1,5-a]pyrazin-8-amine]",250 to 10000,
"CN1CCN([C@H]2CC[C@H](c3nc(-c4ccc(NC(=O)Nc5cc(C(C)(C)C)on5)cc4)c4c(N)nccn43)CC2)CC1 [Example 175, 1-(4-(8-amino-3-((trans)-4-(4-methylpiperazin-1-yl)cyclohexyl)imidazo[1,5-a]pyrazin-1-yl)phenyl)-3-(5-(tert-butyl)isoxazol-3-yl)urea]",< 50,
"CN1CCN([C@H]2CC[C@@H](c3cn(-c4ccc(Oc5ccccc5)cc4)c4c(N)ncnc43)CC2)CC1 [Example 176, 7-((cis)-4-(4-methylpiperazin-1-yl)cyclohexyl)-5-(4-phenoxyphenyl)-5H-pyrrolo[3,2-d]pyrimidin-4-amine]",250 to 10000,
"CN1CCN([C@H]2CC[C@H](c3cn(-c4ccc(Oc5ccccc5)cc4)c4c(N)ncnc43)CC2)CC1 [Example 177, 7-((trans)-4-(4-methylpiperazin-1-yl)cyclohexyl)-5-(4-phenoxyphenyl)-5H-pyrrolo[3,2-d]pyrimidin-4-amine]",< 50,
